# Results as given in patent publication US20050002868A1, “Method of treatment of a female suffering from androgen insufficiency” (Acrux DDS Pty Ltd., priority 2003, published 2005).
# Assay: Open label, randomised two-way cross-over pharmacokinetic study of free serum testosterone after daily transdermal spray for 5 days
# Format: in vivo, women
# Protocol: The study was a single centre, open label pharmacokinetic study, with a randomised, two-way, cross-over design. The two treatment periods were 5 days with an eight day washout between treatments. Intensive blood sampling was performed on day 5 of each treatment period for pharmacokinetic analysis. The treatments consisted of daily application of 2×91 μL sprays for 5 days, either applied to the abdomen or forearm. Free serum testosterone concentration profiles were measured over 24 hours after daily administration of transdermal testosterone for 5 days to 6 healthy surgically menopausal women stabilized on oral oestrogen therapy. HPLC separation (followed by RIA) and equilibrium dialysis were used to measure free testosterone (Esoterix Inc.).
structure (smiles),measurement,setting,value
C[C@]12CC[C@H]3[C@@H](CCC4=CC(=O)CC[C@@]43C)[C@@H]1CC[C@@H]2O [testosterone],"average serum concentrations of free testosterone, forearm compared with abdomen","application to the forearm, day 5, FIG. 1",significantly higher
same,Steady-state concentrations of free testosterone,"daily application for 5 days, abdomen or forearm",attained on day 5
same,"variation of free testosterone serum concentrations, abdomen compared with forearm","dose application to the abdomen, day 5, FIG. 1",considerably less variation
